Data published in US20030036564A1, “Control of lyme disease spirochete” (priority 2001, published 2003).

Tested on: Borrelia burgdorferi strain B31
Experiment: Antibiotic bait diet fed no-choice for seven days to mice infected with Lyme disease spirochete; ear punch biopsy culture and dark field microscopy
Assay type: in vivo, laboratory mice (Swiss-Webster)
Details: ear punch biopsy culture, dark field microscopy
Method: The diet compositions described in Examples 1-3 were fed separately on a no-choice basis to separate groups of laboratory mice (Swiss-Webster) infected with the Lyme disease spirochete Borrelia burgdorferi. […]. The mice had all been previously infected with B. burgdorferi strain B31 by subcutaneous injection followed by a minimum 21-day incubation period. To confirm that the mice were positive for the spirochete, a modified ear punch biopsy was performed (Sinsky and Piesman, 1989, J. of Clin. Micro. 27:1723-1727, CDC 1997) on each mouse and the biopsy incubated in a modified BSK-H media for 7 days and viewed under dark field microscopy. The prepared diets were fed to individually housed mice on a no-choice basis and water was offered ad libitum. Consumption was recorded each day and additional feed was added. Diet was presented to the mice for seven consecutive days. On the day following the last day feed was offered, mice were anesthetized with Halothane and ear punch biopsy was performed. The biopsies were incubated in modified BSK-H media for seven days at 34±1° C. Dark field microscopy was then performed on an American Optics 1031 microscope with an American Optics dark field 1096 condenser to determine the presence of spirochetes. Cultures were considered positive if spirochete growth occurred within five weeks of inoculation (Wilske and Preac-Mursic, Aspects of Lyme Borreliosis, Springer-Verlag, New York 1993), viewing the cultures at seven-day increments. A slide was considered negative if no spirochetes were found after searching 100 fields at 400× (Ginsberg and Ewing, J. of Med. Entomology, 26: 183-189, 1989).

[1] = Treatment level 1, chloramphenicol 500 μg/g bait
[2] = Treatment level 2, chloramphenicol 1000 μg/g bait
[3] = Treatment level 3, thiamphenicol 1000 μg/g bait

SMILES	NUMBER OF MICE TESTING NEGATIVE FOR SPIROCHETE [1]	PERCENTAGE OF MICE TESTING NEGATIVE FOR SPIROCHETE [1]	NUMBER OF MICE TESTING NEGATIVE FOR SPIROCHETE [2]	PERCENTAGE OF MICE TESTING NEGATIVE FOR SPIROCHETE [2]	NUMBER OF MICE TESTING NEGATIVE FOR SPIROCHETE [3]	PERCENTAGE OF MICE TESTING NEGATIVE FOR SPIROCHETE [3]
O=C(N[C@H](CO)[C@H](O)c1ccc([N+](=O)[O-])cc1)C(Cl)Cl [CHLORAMPHENICOL, chloramphenicol]	10/10	(100%)	10/10	(100%)		
CS(=O)(=O)c1ccc([C@@H](O)[C@@H](CO)NC(=O)C(Cl)Cl)cc1 [THIAMPHENICOL, thiamphenicol]					10/10	(100%)
